Where two headings read alike, the source gives them in different places.
Key:
[1] = single 100 mg dose of MDMA (Segura 2005); cited from earlier work
[2] = cited from earlier work
[3] = system: CHO-WBL cells; assay: Chromosomal aberrations in CHO-WBL cells; format: cell-based; conditions: with and without metabolic activation
[4] = system: participants with PTSD, eating disorder symptoms; assay: EAT-26 eating disorder psychopathology before and after MDMA-AT (Phase 3 trial NCT03537014); format: in vivo, human
Source text: The Eating Attitudes Test (EAT or EAT-26) is a standardized self-reported questionnaire of symptoms and concerns characteristic of eating disorders. The EAT-26 uses a six-point scale based on how often the individual engages in specific behaviors. The questions can be answered: Always, Usually, Often, Sometimes, Rarely, and Never. Completing the EAT-26 yields a “referral index” based on three criteria: 1) the total score based on the answers to the EAT-26 questions; 2) answers to the behavioral questions related to eating symptoms and weight loss, and 3) the individual's body mass index (BMI) calculated from their height and weight. In some cases, an individual can be recommended for additional care if the individual meets a “cut off” score or threshold on one or more criteria. For example, if an individual score higher than a 20, the individual should be referred to a qualified professional for potential diagnosis of an eating disorder. (See, for example, Garner, D. M., & Garfinkel, P. E. (1979). Psychological Medicine, 9, 273-279.)
Exploratory data on ED psychopathology were analyzed that were collected as part of a Phase 3 trial (trial ID: NCT03537014, which is herein incorporated by reference in its entirety), which was a double-blind randomized controlled study that compared efficacy and safety of MDMA-AT between placebo and MDMA groups for treatment of PTSD. EAT-26 was included as a pre-specified exploratory measure to assess participants' attitudes about eating and food in addition to the presence of previously undetected EDs. EAT-26 assessments were collected at baseline (visit 4) and study termination (visit 20). This self-reported questionnaire consists of 25 components, each rated on a six-point scale of 0 (Never) to 3 (Always), plus an additional component rated from 0 (Always) to 3 (Never). The […] item addresses occurrence and frequency of specific eating behaviors, such as binge eating. Scores were combined to produce a total EAT-26 score, ranging from 0 to 78, with lower values indicating fewer symptoms. Participants meeting a total cut-off score of 20 or greater are considered likely candidates for having an ED diagnosis and warrant referral to a qualified professional.
Among a total of 90 participants who were randomized and received treatment, 89 participants completed the EAT-26 assessment at baseline, and seven participants withdrew from the study and were missing follow-up data (3 MDMA, 4 placebo). A total of 82 of 90 participants (91.1%) completed both baseline and follow-up EAT-26 assessments and were included in the final analysis. This preliminary analysis of an exploratory measure included only completers of both EAT-26 scores at baseline and follow-up assessments to avoid imputation of data that would attenuate the accuracy of results. […] The baseline sample consisted of participants who were majority female (65.2%), identified as women (62.9%), non-Hispanic White or Latino (89.9%), college graduates (70.8%), and the mean (SD) age was 41.0 (12.00) years. In total, 17 participants had been prescribed sertraline, of which 8 and 9 were assigned to the MDMA and placebo treatment groups, respectively. Furthermore, 6 participants had been prescribed paroxetine, which were equally distributed between MDMA and placebo treatment groups (3 and 3, respectively). At baseline, BMI (kg/m2) scores were in the ‘normal’ range (BMI 18.5-24.9) in 56.2%, ‘overweight’ (BMI 25.0-29.9) in 28.1%, and ‘obese’ (BMI≥30) in 15.7% of participants. There were no treatment group differences in demographic variables or baseline ACE, BDI-II, CAPS-5, or lifetime C-SSRS assessments. Mean BMI (SD) was 26.0 (4.8) kg/m2 in the MDMA-AT group and 24.8 (4.2) kg/m2 in the PLAC-AT group (t=1.3, p=. 2).

[5] = system: healthy individuals; assay: Study MPKF: ECG / QTcF; format: in vivo, human
Source text: Specifically, there was no change in mean QTcF over time above 10 ms at any timepoint.

[6] = biological target: OATP1B1 (Homo sapiens, UniProt Q9Y6L6); assay: Transporter substrate assessment, OATP1B1
[7] = fasted group, 12-hour timepoint

OATP1B1, sequence (Q9Y6L6 whole entry): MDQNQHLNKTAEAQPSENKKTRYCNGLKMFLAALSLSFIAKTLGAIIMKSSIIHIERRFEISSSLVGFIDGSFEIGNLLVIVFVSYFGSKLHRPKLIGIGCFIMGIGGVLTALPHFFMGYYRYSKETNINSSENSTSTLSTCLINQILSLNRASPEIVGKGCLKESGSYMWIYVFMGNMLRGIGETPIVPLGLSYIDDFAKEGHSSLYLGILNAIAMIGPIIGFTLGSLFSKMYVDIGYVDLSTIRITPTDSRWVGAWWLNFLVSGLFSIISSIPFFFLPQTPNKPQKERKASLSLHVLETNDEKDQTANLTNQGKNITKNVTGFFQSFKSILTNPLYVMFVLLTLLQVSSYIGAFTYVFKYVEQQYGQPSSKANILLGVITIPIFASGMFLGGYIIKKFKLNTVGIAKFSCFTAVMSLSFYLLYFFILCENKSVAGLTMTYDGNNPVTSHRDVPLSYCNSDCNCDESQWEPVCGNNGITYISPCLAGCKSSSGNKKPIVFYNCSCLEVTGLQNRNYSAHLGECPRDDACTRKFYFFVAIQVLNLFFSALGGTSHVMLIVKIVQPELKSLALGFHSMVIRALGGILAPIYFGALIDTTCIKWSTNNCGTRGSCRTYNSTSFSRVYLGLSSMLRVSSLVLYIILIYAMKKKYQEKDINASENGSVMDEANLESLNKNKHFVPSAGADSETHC

## CNC(C)Cc1ccc2c(c1)OCO2 (centres unmarked) [MDMA, 3,4-methylenedioxymethamphetamine]
[1]
  increase of AUC0-8 hr of paroxetine (20 mg): 3 fold
  increase of Cmax of paroxetine (20 mg): 2.5 fold
[2]; oral 1.0 mg/kg MDMA
  unchanged MDMA excreted in urine: 8%
[2]; oral 1.6 mg/kg MDMA
  unchanged MDMA excreted in urine: 11%
[3]
  chromosomal aberrations: no signs of chromosomal aberrations
[4]; baseline EAT-26≥11 subset
  Cohen's d, EAT-26 reduction MDMA vs placebo: 0.52
  RCI score, EAT-26: −2.16
  within-subject mean (SD) reduction in EAT-26 scores: −9.58 (7.59)
[4]; baseline EAT-26≥20 subset
  RCI score, EAT-26: −2.83
  within-subject mean reduction in EAT-26 scores: −14.08
[4]; reduced from 5 (11.90%) at baseline
  participants with EAT-26≥20 at follow-up: 2.38%
[4]; total sample
  within-subject mean (SD) reduction in EAT-26 scores, baseline to follow-up: −3.04 (6.24)
[4]; total sample, adjusted for baseline
  Hedge's g, EAT-26 change scores MDMA vs placebo: 0.33
[4]; women with EAT-26≥11
  RCI score, EAT-26: −2.90
[4]; women with baseline EAT-26≥11
  Hedge's g, EAT-26 change scores MDMA vs. placebo: 0.63
[4]; women with baseline EAT-26≥20
  Hedge's g, EAT-26 change scores MDMA vs. placebo: 0.60
[4]; women with baseline EAT-26≥20, group not given
  RCI, change in EAT-26 score: −18.80
[5]; any timepoint
  change in mean QTcF over time: ≤ 10 ms
[5]; [7]
  participants with mean QTcF increase from baseline above 30 ms: 6.3%
  participants with mean QTcF increase from baseline above 30 ms, n: 1 participant
[5]; in vivo
  impact on ECG parameters: no significant impact
[5]; no participant above, any group
  QTcF intervals: ≤ 450 ms
[6]
  substrate of OATP1B1: not a substrate

Source: patent publication US20250134855A1, “CO[…] AND METHODS OF USING SAME” (LYKOS THERAPEUTICS, INC., priority 2022, published 2025)
